Reference: ChEMBL document CHEMBL3885881, “DrugMatrix”

Species: Rattus norvegicus
Assay: DrugMatrix - Regimen: Daily Repeat
Format: toxicity, organism-based, Sprague-Dawley
Set-up: regimen Daily Repeat, gender Male, age 6-8 weeks
Settings: in vivo, po, route oral GAVAGE, vehicle .5 % CMC; for ABSOLUTE BASOPHIL / ABSOLUTE EOSINOPHIL / ABSOLUTE LYMPHOCYTE / ABSOLUTE MONOCYTE / ABSOLUTE SEGMENTED NEUTROPHIL / BASOPHIL / EOSINOPHIL / ERYTHROCYTE COUNT / HEMATOCRIT / HEMOGLOBIN / LEUKOCYTE COUNT / LYMPHOCYTE / MEAN CORPUSCULAR HEMOGLOBIN / MEAN CORPUSCULAR HEMOGLOBIN CONCENTRATION / MEAN CORPUSCULAR VOLUME / MONOCYTE / NEUTROPHIL / NUCLEATED RED BLOOD CELLS / PLATELET COUNT: tissue Blood; for ALANINE AMINOTRANSFERASE / ALBUMIN / ALKALINE PHOSPHATASE / ASPARTATE AMINOTRANSFERASE / BLOOD UREA NITROGEN / CARBON DIOXIDE / CHLORIDE / CHOLESTEROL / CREATINE PHOSPHOKINASE / CREATININE / GLUCOSE / LACTATE DEHYDROGENASE / LIPASE / PHOSPHORUS / POTASSIUM / SODIUM / TOTAL BILIRUBIN / TOTAL PROTEIN / URIC ACID: tissue Plasma
[1] = 4.5 mg/kg, 120 h, dose level Low, time 5 day
[2] = 10 mg/kg, 72 h, dose level High, time 3 day
[3] = 10 mg/kg, 120 h, dose level High, time 5 day

## CC(C(=O)O)c1ccc(-c2ccccc2)c(F)c1 (centres undefined) [FLURBIPROFEN]
[1]
  ABSOLUTE BASOPHIL: 0 CELLS/uL
  ABSOLUTE EOSINOPHIL: 147.67 CELLS/uL
  ABSOLUTE LYMPHOCYTE: 17510 CELLS/uL
  ABSOLUTE MONOCYTE: 77.67 CELLS/uL
  ABSOLUTE SEGMENTED NEUTROPHIL: 4798 CELLS/uL
  BASOPHIL: 0%
  EOSINOPHIL: 0.67%
  ERYTHROCYTE COUNT: 5.45 x10E6/uL
  HEMATOCRIT: 34.47%
  HEMOGLOBIN: 12.83 G/DL
  LEUKOCYTE COUNT: 22.53 x10E3/uL
  LYMPHOCYTE: 77.67%
  MEAN CORPUSCULAR HEMOGLOBIN: 23.53 pg
  MEAN CORPUSCULAR HEMOGLOBIN CONCENTRATION: 37.23 G/DL
  MEAN CORPUSCULAR VOLUME: 63.2 fL
  MONOCYTE: 0.33%
  NEUTROPHIL: 21.33%
  NUCLEATED RED BLOOD CELLS: 0 /100WBC
  PLATELET COUNT: 1825.67 x10E3/uL
  ALANINE AMINOTRANSFERASE: 45.67 u/L
  ALBUMIN: 3.93 G/DL
  ALKALINE PHOSPHATASE: 223.33 u/L
  ASPARTATE AMINOTRANSFERASE: 67.33 u/L
  BLOOD UREA NITROGEN: 14.67 mg/dL
  CARBON DIOXIDE: 27.67 mmol/L
  CHLORIDE: 100 MEQ/L
  CHOLESTEROL: 64.33 mg/dL
  CREATINE PHOSPHOKINASE: 204.67 u/L
  CREATININE: 0.18 mg/dL
  GLUCOSE: 162.67 mg/dL
  LACTATE DEHYDROGENASE: 109.33 u/L
  LIPASE: 8.67 u/L
  PHOSPHORUS: 11.9 mg/dL
  POTASSIUM: 6.47 MEQ/L
  SODIUM: 143.53 MEQ/L
  TOTAL BILIRUBIN: 0.17 mg/dL
  TOTAL PROTEIN: 5.73 G/DL
  URIC ACID: 2.47 mg/dL
[2]
  ABSOLUTE BASOPHIL: 0 CELLS/uL
  ABSOLUTE EOSINOPHIL: 156 CELLS/uL
  ABSOLUTE LYMPHOCYTE: 13184.67 CELLS/uL
  ABSOLUTE MONOCYTE: 124.67 CELLS/uL
  ABSOLUTE SEGMENTED NEUTROPHIL: 3134.67 CELLS/uL
  BASOPHIL: 0%
  EOSINOPHIL: 1%
  ERYTHROCYTE COUNT: 4.13 x10E6/uL
  HEMATOCRIT: 25.13%
  HEMOGLOBIN: 10 G/DL
  LEUKOCYTE COUNT: 16.6 x10E3/uL
  LYMPHOCYTE: 79.67%
  MEAN CORPUSCULAR HEMOGLOBIN: 24.27 pg
  MEAN CORPUSCULAR HEMOGLOBIN CONCENTRATION: 39.83 G/DL
  MEAN CORPUSCULAR VOLUME: 61.07 fL
  MONOCYTE: 0.67%
  NEUTROPHIL: 18.67%
  NUCLEATED RED BLOOD CELLS: 0 /100WBC
  PLATELET COUNT: 1131.67 x10E3/uL
  ALANINE AMINOTRANSFERASE: 16 u/L
  ALBUMIN: 2.13 G/DL
  ALKALINE PHOSPHATASE: 132.67 u/L
  ASPARTATE AMINOTRANSFERASE: 50 u/L
  BLOOD UREA NITROGEN: 12 mg/dL
  CARBON DIOXIDE: 23 mmol/L
  CHLORIDE: 104.33 MEQ/L
  CHOLESTEROL: 60 mg/dL
  CREATINE PHOSPHOKINASE: 459.67 u/L
  CREATININE: 0.11 mg/dL
  GLUCOSE: 149.33 mg/dL
  LACTATE DEHYDROGENASE: 200.33 u/L
  LIPASE: 7.33 u/L
  PHOSPHORUS: 10.17 mg/dL
  POTASSIUM: 6.66 MEQ/L
  SODIUM: 141.47 MEQ/L
  TOTAL BILIRUBIN: 0 mg/dL
  TOTAL PROTEIN: 3.97 G/DL
  URIC ACID: 1.6 mg/dL
[3]
  ABSOLUTE BASOPHIL: 0 CELLS/uL
  ABSOLUTE EOSINOPHIL: 295.67 CELLS/uL
  ABSOLUTE LYMPHOCYTE: 12633.33 CELLS/uL
  ABSOLUTE MONOCYTE: 394 CELLS/uL
  ABSOLUTE SEGMENTED NEUTROPHIL: 4310.33 CELLS/uL
  BASOPHIL: 0%
  EOSINOPHIL: 2%
  ERYTHROCYTE COUNT: 4.56 x10E6/uL
  HEMATOCRIT: 28.67%
  HEMOGLOBIN: 11 G/DL
  LEUKOCYTE COUNT: 17.63 x10E3/uL
  LYMPHOCYTE: 68.33%
  MEAN CORPUSCULAR HEMOGLOBIN: 24.17 pg
  MEAN CORPUSCULAR HEMOGLOBIN CONCENTRATION: 38.37 G/DL
  MEAN CORPUSCULAR VOLUME: 62.97 fL
  MONOCYTE: 1.67%
  NEUTROPHIL: 28%
  NUCLEATED RED BLOOD CELLS: 0.33 /100WBC
  PLATELET COUNT: 1559.67 x10E3/uL
  ALANINE AMINOTRANSFERASE: 29 u/L
  ALBUMIN: 2.7 G/DL
  ALKALINE PHOSPHATASE: 259.67 u/L
  ASPARTATE AMINOTRANSFERASE: 105.67 u/L
  BLOOD UREA NITROGEN: 16 mg/dL
  CARBON DIOXIDE: 25 mmol/L
  CHLORIDE: 100.67 MEQ/L
  CHOLESTEROL: 63.33 mg/dL
  CREATINE PHOSPHOKINASE: 164.67 u/L
  CREATININE: 0.13 mg/dL
  GLUCOSE: 140.33 mg/dL
  LACTATE DEHYDROGENASE: 138 u/L
  LIPASE: 8.33 u/L
  PHOSPHORUS: 11.9 mg/dL
  POTASSIUM: 6.44 MEQ/L
  SODIUM: 142.2 MEQ/L
  TOTAL BILIRUBIN: 0.1 mg/dL
  TOTAL PROTEIN: 5.03 G/DL
  URIC ACID: 1.63 mg/dL
